# Assay results: EPA's ToxValDB 9.5 (doi:10.2903/j.efsa.2009.201r)
# Experiments:
# Rattus norvegicus = details: for NOAEL: chronic
# Apis mellifera = details: acute; duration: 48 hours; dermal; mortality
# Daphnia magna = details: chronic/long-term; duration: 21 days; growth
# Anas platyrhynchos = details: oral, mortality
# Tagia sp. = details: mortality
# Canidae = details: chronic; duration: 1 years; oral; Dog Other; body weight
compound,measurement,setting,value
COc1nc(C)nc(NC(=O)NS(=O)(=O)c2ccccc2Cl)n1 [Chlorsulfuron],LD50,"Rattus norvegicus; acute, oral, mortality",> 5540 mg/kg-day
same,NOAEL,Rattus norvegicus,75 mg/kg-day
same,NOAEL,"Rattus norvegicus; duration: 2 years, histopathology: neoplastic",20 mg/kg-day
same,LD50,Apis mellifera,> 100 µg/piece
same,LC50,"Oncorhynchus mykiss; acute, duration: 96 hours, mortality",> 122 mg/L
same,NOEC,"Oncorhynchus mykiss; chronic/long-term, duration: 77 days, growth",32 mg/L
same,LD50,"Colinus virginianus; acute, oral, mortality",> 5000 mg/kg-day
same,NOEL,Colinus virginianus; reproduction developmental,28 mg/kg-day
same,NOEC,Daphnia magna,12 mg/L
same,LD50,"Anas platyrhynchos; acute, unspecified",> 5000 mg/kg-day
same,LC50,"Anas platyrhynchos; short-term, feed",> 634 mg/kg-day
same,LC50,"Tagia sp.; acute, duration: 14 days",> 750 mg/kg
same,NOEC,"Tagia sp.; chronic/long-term, duration: 56 days",188 mg/kg
same,NOAEL,Canidae,60.6 mg/kg-day
